# Measurements published in patent US4155912A, “2-Methylpenem-3-carboxylic acid antibiotics” (Bristol-Myers Company, priority 1977, dated 1979).
# Read-outs that look alike come from different tables or passages of the source.
# Columns and labels:
# bacteria [1] = settings: as reported in literature; cited from earlier work
# β-lactamases = settings: as reported in literature; cited from earlier work
# E. coli A-15119 = assay: MIC by tube dilution, E. coli A-15119; format: cell-based; settings: 37° C.
# Procedure: (§1) The in vitro minimum inhibitory concentrations (MIC) of d,l-2-methylpenem-3-carboxylic acid, (+)-2-methylpenem-3-carboxylic acid and (-)-2-methylpenem-3-carboxylic acid were determined for a number of microorganisms as determined by overnight incubation at 37° C. by tube dilution. Ampicillin was included as a comparison compound.
# Staph. aureus A-9537 = assay: MIC by tube dilution, Staph. aureus A-9537; format: cell-based; settings: Staphylococcus aureus, 37° C.
# Procedure: as §1
# K. pneumoniae A-15130 = assay: MIC by tube dilution, K. pneumoniae A-15130; format: cell-based; settings: 37° C.
# Procedure: as §1
# Ent. cloacae A-9656 = assay: MIC by tube dilution, Ent. cloacae A-9656; format: cell-based; settings: 37° C.
# Procedure: as §1
# [2] = test system: Staph. aureus (Meth-Res) A-15097; assay: MIC by tube dilution, Staph. aureus (Meth-Res) A-15097; format: cell-based; settings: overnight, 37° C.
# Procedure: as §1
# in vivo = settings: mouse, im, 40 mg/kg
# Ps. aeruginosa A-21213 = assay: MIC by tube dilution, Ps. aeruginosa A-21213; format: cell-based; settings: 37° C.; for MIC: Pseudomonas aeruginosa, A21213, Ps. aeruginosa A-21213, overnight
# Procedure: as §1
# Str. pyogenes A-9604 = assay: MIC by tube dilution, Str. pyogenes A-9604; format: cell-based; settings: Streptococcus pyogenes, A9604, Str. pyogenes A-9604, overnight, 37° C.
# Procedure: as §1
# Ent. cloacae A-9659 = assay: MIC by tube dilution, Ent. cloacae A-9659; format: cell-based; settings: 37° C.
# Procedure: as §1
# Str. faecalis A-20688 = assay: MIC by tube dilution, Str. faecalis A-20688; format: cell-based; settings: 37° C.
# Procedure: as §1
# K. pneumoniae A-20468 = assay: MIC by tube dilution, K. pneumoniae A-20468; format: cell-based; settings: 37° C.; for MIC: Klebsiella pneumoniae, A20468, overnight
# Procedure: as §1
# Pr. mirabilis A-9900 = assay: MIC by tube dilution, Pr. mirabilis A-9900; format: cell-based; settings: 37° C.
# Procedure: as §1
# Str. pneumoniae A-9585 = assay: MIC by tube dilution, Str. pneumoniae A-9585; format: cell-based; settings: Streptococcus pneumoniae, A9585, Str. pneumoniae A-9585, overnight, 37° C.
# Procedure: as §1
# E. coli A-20341-1 = assay: MIC by tube dilution, E. coli A-20341-1; format: cell-based; settings: 37° C.
# Procedure: as §1
# Pr. morganii A-15153 = assay: MIC by tube dilution, Pr. morganii A-15153; format: cell-based; settings: 37° C.
# Procedure: as §1
# Ser. marcescens A-20019 = assay: MIC by tube dilution, Ser. marcescens A-20019; format: cell-based; settings: 37° C.
# Procedure: as §1
# Pr. rettgeri A-21205 = assay: MIC by tube dilution, Pr. rettgeri A-21205; format: cell-based; settings: 37° C.; for M.I.C.: Pr. rettgeri A-21205, overnight
# Procedure: as §1
# [3] = test system: Staph. aureus (Pen-Res) A-9606; assay: MIC by tube dilution, Staph. aureus (Pen-Res) A-9606; format: cell-based; settings: overnight, 37° C.
# Procedure: as §1
# Pr. vulgaris A-9716 = assay: MIC by tube dilution, Pr. vulgaris A-9716; format: cell-based; settings: 37° C.
# Procedure: as §1
# Ps. aeruginosa A-9843A = assay: MIC by tube dilution, Ps. aeruginosa A-9843A; format: cell-based; settings: overnight, 37° C.
# Procedure: as §1
# [4] = Mouse blood levels after oral administration; format: in vivo
# From the text: Blood level values represent averages of 4 experiments for
# d,l-2-methylpenem-3-carboxylic acid, 3 for ampicillin and 1 for
# Assay Organism: Bacillus megaterium A-9737
# bacteria [5] = settings: as reported in literature; cited from earlier work; remark: listed apart in the source
# [6] = blood, oral, 100 mg./kg., 5 minutes after administration, read-out: Blood Level
# [7] = blood, oral, 100 mg./kg., 10 minutes after administration, read-out: Blood Level
# [8] = blood, oral, 100 mg./kg., 15 minutes after administration, read-out: Blood Level
# [9] = blood, oral, 100 mg./kg., 30 minutes after administration, read-out: Blood Level
# [10] = blood, oral, 100 mg./kg., 45 minutes after administration, read-out: Blood Level
structure (smiles),measurement,setting,value
CC(=O)NC=C[S+]([O-])C1=C(C(=O)O)N2C(=O)C(C(C)OS(=O)(=O)O)C2C1 (stereo not drawn),antibacterial activity,bacteria [1],some antibacterial activity
same,β-lactamase inhibition,β-lactamases,β-lactamase inhibitor
"CC1=C(C(=O)O)N2C(=O)C[C@H]2S1 (racemic) [d,l-2-methylpenem-3-carboxylic acid, 2-Methylpenem-3-carboxylic Acid]",MIC,"E. coli A-15119; Escherichia coli, A15119, E. coli A-15119, overnight",8 µg/mL
same,MIC,"Staph. aureus A-9537; A9537, Staph. aureus A-9537, overnight",0.13 µg/mL
same,MIC,"Staph. aureus A-9537; A9537, Staph. aureus A-9537 and 50% serum, overnight",8 µg/mL
same,MIC,"K. pneumoniae A-15130; Klebsiella pneumoniae, A15130, K. pneumoniae A-15130, overnight",16 µg/mL
same,MIC,"Ent. cloacae A-9656; Enterobacter cloacae, A9656, Ent. cloacae A-9656, overnight",16 µg/mL
same,MIC,[2]; Staphylococcus aureus,1 µg/mL
same,concentration at 5 min,in vivo,27100 ng/mL
same,concentration at 0.25 h,in vivo,12700 ng/mL
same,concentration at 0.5 h,in vivo,< 5900 ng/mL
same,concentration at 0.75 h,in vivo,< 5900 ng/mL
same,concentration at 1 h,in vivo,< 5900 ng/mL
same,MIC,Ps. aeruginosa A-21213,> 125 µg/mL
same,MIC,Str. pyogenes A-9604,0.13 µg/mL
same,MIC,"Ent. cloacae A-9659; Enterobacter cloacae, A9659, Ent. cloacae A-9659, overnight",16 µg/mL
same,MIC,"Str. faecalis A-20688; Enterococcus faecalis, A20688, Str. faecalis A-20688, overnight",32 µg/mL
same,MIC,K. pneumoniae A-20468,> 125 µg/mL
same,MIC,"Pr. mirabilis A-9900; Proteus mirabilis, A9900, Pr. mirabilis A-9900, overnight",8 µg/mL
same,MIC,Str. pneumoniae A-9585,0.03 µg/mL
same,MIC,"E. coli A-20341-1; Escherichia coli, A203411, E. coli A-20341-1, overnight",16 µg/mL
same,MIC,"Pr. morganii A-15153; Morganella morganii, A15153, Pr. morganii A-15153, overnight",16 µg/mL
same,MIC,"Ser. marcescens A-20019; Serratia marcescens, A20019, Ser. marcescens A-20019, overnight",8 µg/mL
same,MIC,"Pr. rettgeri A-21205; Providencia rettgeri, A21205, Pr. rettgeri A-21205, overnight",4 µg/mL
same,MIC,[3]; Staphylococcus aureus,1 µg/mL
same,MIC,"Pr. vulgaris A-9716; Proteus vulgaris, A9716, Pr. vulgaris A-9716, overnight",8 µg/mL
same,MIC,"Ps. aeruginosa A-9843A; Pseudomonas aeruginosa, A9843A",125 µg/mL
same,concentration at 5 min,[4]; [6],28000 ng/mL
same,concentration at 10 min,[4]; [7],25100 ng/mL
same,concentration at 0.25 h,[4]; [8],18400 ng/mL
same,concentration at 0.5 h,[4]; [9],< 5600 ng/mL
same,concentration at 0.75 h,[4]; [10],< 3900 ng/mL
same,concentration at 1 h,"[4]; blood, oral, 100 mg./kg., 60 minutes after administration, read-out: Blood Level",< 4300 ng/mL
same,concentration at 2 h,"[4]; blood, oral, 100 mg./kg., 120 minutes after administration, read-out: Blood Level",< 4300 ng/mL
CC1(C)S[C@@H]2[C@H](NC(=O)[C@H](N)c3ccc(O)cc3)C(=O)N2[C@H]1C(=O)O [Amoxicillin],concentration at 5 min,[4]; [6],1500 ng/mL
same,concentration at 10 min,[4]; [7],7100 ng/mL
same,concentration at 0.25 h,[4]; [8],9900 ng/mL
same,concentration at 0.5 h,[4]; [9],14000 ng/mL
same,concentration at 0.75 h,[4]; [10],15500 ng/mL
CC1(C)S[C@@H]2[C@H](NC(=O)[C@H](N)c3ccccc3)C(=O)N2[C@H]1C(=O)O [Ampicillin],concentration at 5 min,in vivo,20800 ng/mL
same,concentration at 0.25 h,in vivo,22800 ng/mL
same,concentration at 0.5 h,in vivo,20000 ng/mL
same,concentration at 0.75 h,in vivo,11800 ng/mL
same,concentration at 1 h,in vivo,7100 ng/mL
same,concentration at 5 min,"[4]; in vivo, po, 100 mg/kg",2100 ng/mL
same,concentration at 10 min,"[4]; in vivo, po, 100 mg/kg",3900 ng/mL
same,concentration at 0.25 h,"[4]; in vivo, po, 100 mg/kg",6100 ng/mL
same,concentration at 0.5 h,"[4]; in vivo, po, 100 mg/kg",8200 ng/mL
same,concentration at 0.75 h,"[4]; in vivo, po, 100 mg/kg",6100 ng/mL
same,concentration at 1 h,"[4]; in vivo, po, 100 mg/kg",7900 ng/mL
same,concentration at 2 h,"[4]; in vivo, po, 100 mg/kg",2800 ng/mL
C[C@@H](O)[C@H]1C(=O)N2C(C(=O)O)=C(SCCN)C[C@H]12 [Thienamycin],antibacterial activity,bacteria [1],highly potent broad-spectrum antibiotic
O=C(O)C1C(=CCO)OC2CC(=O)N21 (stereo not drawn) [clavulinic acid],antibacterial activity,bacteria [1],low order of antibacterial activity
same,β-lactamase inhibition,β-lactamases,inhibits the action of certain β-lactamases
same,effect on in vitro and in vivo activity of some penicillins and cephalosporins,bacteria [5],enhances the in vitro and in vivo activity of some penicillins and cephalosporins
"CC1=C(C(=O)O)N2C(=O)C[C@H]2S1 [d-2-methylpenem-3-carboxylic acid, (+)-2-methylpenem-3-carboxylic Acid]",MIC,Ps. aeruginosa A-21213,63 µg/mL
same,MIC,K. pneumoniae A-20468,> 125 µg/mL
same,M.I.C.,Pr. rettgeri A-21205,4 meg./ml.
same,M.I.C.,Ps. aeruginosa A-9843A,32 meg./ml.
"CC1=C(C(=O)O)N2C(=O)C[C@H]2S1 [l-2-methylpenem-3-carboxylic acid, (-)-2-methylpenem-3-carboxylic Acid]",M.I.C.,"E. coli A-15119; E. coli A-15119, overnight",> 125 meg./ml.
same,M.I.C.,"K. pneumoniae A-15130; K. pneumoniae A-15130, overnight",> 125 meg./ml.
same,M.I.C.,"Ent. cloacae A-9656; Ent. cloacae A-9656, overnight",> 125 meg./ml.
same,M.I.C.,[2],> 125 meg./ml.
same,M.I.C.,"Ps. aeruginosa A-21213; Ps. aeruginosa A-21213, overnight",> 125 meg./ml.
same,M.I.C.,"Ent. cloacae A-9659; Ent. cloacae A-9659, overnight",> 125 meg./ml.
same,M.I.C.,"Str. faecalis A-20688; Str. faecalis A-20688, overnight",125 meg./ml.
same,M.I.C.,K. pneumoniae A-20468; overnight,> 125 meg./ml.
same,M.I.C.,"Pr. mirabilis A-9900; Pr. mirabilis A-9900, overnight",> 125 meg./ml.
same,M.I.C.,"E. coli A-20341-1; E. coli A-20341-1, overnight",> 125 meg./ml.
same,M.I.C.,"Pr. morganii A-15153; Pr. morganii A-15153, overnight",> 125 meg./ml.
same,M.I.C.,"Ser. marcescens A-20019; Ser. marcescens A-20019, overnight",> 125 meg./ml.
same,M.I.C.,Pr. rettgeri A-21205,> 125 meg./ml.
same,M.I.C.,[3],> 125 meg./ml.
same,M.I.C.,"Pr. vulgaris A-9716; Pr. vulgaris A-9716, overnight",> 125 meg./ml.
same,M.I.C.,Ps. aeruginosa A-9843A,> 125 meg./ml.
